Laboratory results reported in the supplement of paper PMC10307832.

Columns and labels:
Test in all cases: relative viability (nuclei count vs DMSO), 5 days (fraction); higher = more cells survive
Bemcentinib + Bortezomib = compound: Nc1nc(Nc2ccc3c(c2)CC[C@@H](N2CCCC2)CC3)nn1-c1cc2c(nn1)-c1ccccc1CCC2 [Bemcentinib] + CC(C)C[C@H](NC(=O)[C@H](Cc1ccccc1)NC(=O)c1cnccn1)B(O)O [Bortezomib] (partner 0.002 µM)
How it was run: (§1)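 A single step with final 0.05% Triton X-100, 1% formaldehyde and 1 ug/ml Hoechst fixed the cells and stained nuclei 5 days after treatment. Lung cancer cell lines in 1536-well plates had been treated by pin tool the day after seeding with one drug alone or a fixed anchor-drug dose plus five library-drug doses (not always all listed) in √10 steps, and nuclei were counted on 4× images. Relative viability is the ratio of nuclei in treated wells to nuclei in vehicle wells, taken as the median of duplicate plates.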

Axitinib + Bortezomib = compound: CNC(=O)c1ccccc1Sc1ccc2c(/C=C/c3ccccn3)n[nH]c2c1 [Axitinib] + CC(C)C[C@H](NC(=O)[C@H](Cc1ccccc1)NC(=O)c1cnccn1)B(O)O [Bortezomib] (partner 0.002 µM)
How it was run: as §1

[1] = compound: CC1=CC=C(C=C1)C(=O)CN2C3=C(CCCC3)SC2=N [Pifithrin_alpha] + COc1cccc2cc(-c3nc([C@H]4CC[C@H](C(=O)O)CC4)n4ncnc(N)c34)[nH]c12 [OSI-027] (partner 0.5 µM)
How it was run: as §1

[2] = compound: CC1=CC=C(C=C1)C(=O)CN2C3=C(CCCC3)SC2=N [Pifithrin_alpha] + N=C(N)NC(=N)NCCc1ccccc1 [Phenformin] (partner 250 µM)
How it was run: as §1

Row | Cell Line | relative viability (Bemcentinib + Bortezomib; first compound 0.04 µM) | relative viability (Bemcentinib + Bortezomib; first compound 0.1265 µM) | relative viability (Bemcentinib + Bortezomib; first compound 0.4 µM) | relative viability (Bemcentinib + Bortezomib; first compound 1.265 µM) | relative viability (Bemcentinib + Bortezomib; first compound 4 µM) | relative viability (Axitinib + Bortezomib; first compound 0.005 µM) | relative viability (Axitinib + Bortezomib; first compound 0.01581 µM) | relative viability (Axitinib + Bortezomib; first compound 0.05 µM) | relative viability (Axitinib + Bortezomib; first compound 0.1581 µM) | relative viability (Axitinib + Bortezomib; first compound 0.5 µM) | relative viability ([1]; first compound 1 µM) | relative viability ([1]; first compound 3.162 µM) | relative viability ([1]; first compound 10 µM) | relative viability ([1]; first compound 31.62 µM) | relative viability ([1]; first compound 100 µM) | relative viability ([2]; first compound 1 µM) | relative viability ([2]; first compound 3.162 µM) | relative viability ([2]; first compound 10 µM) | relative viability ([2]; first compound 31.62 µM) | relative viability ([2]; first compound 100 µM)
1 | NCI-H1666 | 0.649 | 0.937 | 0.854 | 0.895 | 0.759 | 0.938 | 0.881 | 0.97 | 0.922 | 0.92 | 0.789 | 0.771 | 0.651 | 0.642 | 0.585 | 0.525 | 0.52 | 0.425 | 0.455 | 0.436
2 | NCI-H1734 | 0.935 | 0.871 | 1.2 | 0.953 | 0.947 | 0.935 | 0.974 | 0.879 | 1.01 | 1.06 | 0.58 | 0.633 | 0.585 | 0.482 | 0.491 | 0.358 | 0.456 | 0.372 | 0.362 | 0.376
3 | NCI-H1755 | 0.982 | 1 | 0.973 | 0.995 | 0.961 | 0.973 | 0.973 | 0.932 | 0.971 | 0.967 | 0.57 | 0.687 | 0.675 | 0.525 | 0.566 | 0.605 | 0.603 | 0.57 | 0.423 | 0.53
4 | NCI-H1792 | 1.02 | 1.17 | 1.19 | 1.04 | 1.03 | 1 | 0.982 | 0.952 | 0.953 | 0.894 | – | 0.668 | 0.538 | 0.391 | 0.458 | 0.292 | – | 0.472 | – | 0.372
5 | NCI-H1915 | 0.731 | 1.02 | 1.04 | 0.853 | 1.05 | 0.921 | 0.944 | 1.05 | 0.986 | 0.976 | 0.567 | 0.628 | – | – | 0.584 | 0.385 | 0.424 | – | – | 0.435
6 | NCI-H1975 | 0.381 | 0.347 | 0.417 | 0.433 | 0.44 | 0.404 | 0.357 | 0.397 | 0.394 | 0.463 | 0.731 | 0.583 | 0.319 | 0.309 | 0.276 | 0.394 | 0.38 | 0.373 | 0.337 | 0.364
7 | NCI-H1993 | 1.12 | 1.17 | 1.14 | 0.921 | 1.2 | 1.21 | 1.3 | 1.14 | 1.18 | 0.913 | 0.509 | 0.537 | 0.571 | 0.65 | 0.59 | 0.474 | 0.461 | 0.49 | 0.547 | 0.511
8 | NCI-H2009 | 0.986 | 1.05 | 1.09 | 1.09 | 1.19 | 1.1 | 1.11 | 1.04 | 1.04 | 1.16 | 0.601 | 0.663 | 0.62 | 0.431 | 0.456 | 0.483 | 0.467 | 0.451 | 0.345 | 0.422
9 | NCI-H2023 | 0.938 | 1.03 | 1.04 | 1.15 | 1.12 | 0.968 | 1 | 1.03 | 0.834 | 1.02 | 0.305 | 0.3 | 0.204 | – | 0.213 | 0.521 | 0.485 | 0.456 | – | 0.389
10 | NCI-H2085 | 1.01 | 1.11 | 1.03 | 0.997 | 0.973 | 1.15 | 0.966 | 1.06 | 1.04 | 1.05 | – | 0.781 | 0.473 | 0.505 | 0.398 | – | 0.597 | 0.686 | 0.65 | 0.619
11 | NCI-H2087 | 0.736 | 1.09 | 0.994 | 0.61 | 0.769 | 0.944 | 0.772 | 0.868 | 0.615 | 1.13 | 0.417 | 0.499 | 0.483 | – | 0.605 | 0.356 | 0.488 | 0.485 | – | 0.451
12 | NCI-H2126 | 1.11 | 1.07 | 1.18 | 1.16 | 1.13 | 1.15 | 1.05 | 1.07 | 1.04 | 1.11 | – | 0.671 | 0.594 | 0.658 | 0.563 | 0.475 | 0.498 | 0.499 | 0.464 | 0.427
13 | NCI-H2228 | – | 1.04 | 1.12 | 0.93 | 1.08 | 1.31 | 0.829 | 0.886 | 0.954 | 1.07 | 0.589 | 0.574 | 0.526 | 0.392 | 0.283 | 0.312 | 0.265 | 0.374 | 0.256 | 0.205
14 | NCI-H2347 | 0.831 | 1.03 | 0.967 | 0.901 | 1.11 | 1.26 | 0.752 | 1.36 | 0.798 | 0.692 | 0.467 | 0.467 | 0.431 | 0.328 | 0.367 | 0.452 | 0.471 | 0.394 | 0.416 | 0.543
15 | NCI-H2405 | 1.01 | 0.853 | 0.985 | 1.07 | 0.938 | 1.03 | 0.982 | 1.03 | 0.946 | 0.958 | 0.494 | 0.639 | 0.583 | 0.58 | 0.579 | 0.371 | 0.504 | 0.481 | 0.463 | 0.479
16 | NCI-H3122 | 0.911 | 1.04 | 0.991 | 0.937 | 0.994 | 0.904 | 1.03 | 1.04 | 1.05 | 1.07 | 1 | 1.26 | 1.01 | – | 0.786 | 0.376 | 0.356 | 0.327 | – | 0.283
17 | PC-3 [JPC-3] | 0.803 | 0.948 | 0.8 | 0.906 | 0.869 | 0.98 | – | 0.807 | 0.833 | 0.964 | 0.676 | 0.747 | 0.574 | 0.545 | 0.618 | 0.497 | 0.482 | 0.409 | 0.47 | 0.488
